Key:
pancreatic tumor cell = details: in vitro and in vivo; Brockschmidt et al., Gut 2008; cited from earlier work
CK1ε = CK1ε (Homo sapiens (Human), UniProt P49674); assay: CK1ε kinase assay (Caliper LABCHIP electrophoretic separation of fluoresceinated peptide substrate and product); type: biochemical; details: 200 pM enzyme, 50 μM ATP, 22 hours at room temperature
Summary of the method: (§1)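 Eleven-concentration compound series in kinase reactions run for 22 hours at room temperature. Terminated with EDTA, with product conversion read by electrophoretic separation. Non-linear regression gave IC50.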

CK1δ = CK1δ (Homo sapiens (Human), UniProt P48730); assay: CK1δ kinase assay (Caliper LABCHIP electrophoretic separation of fluoresceinated peptide substrate and product); type: biochemical; details: 200 pM enzyme, 50 μM ATP, 22 hours at room temperature
Summary of the method: as §1

CK1δ, sequence (P48730 whole entry): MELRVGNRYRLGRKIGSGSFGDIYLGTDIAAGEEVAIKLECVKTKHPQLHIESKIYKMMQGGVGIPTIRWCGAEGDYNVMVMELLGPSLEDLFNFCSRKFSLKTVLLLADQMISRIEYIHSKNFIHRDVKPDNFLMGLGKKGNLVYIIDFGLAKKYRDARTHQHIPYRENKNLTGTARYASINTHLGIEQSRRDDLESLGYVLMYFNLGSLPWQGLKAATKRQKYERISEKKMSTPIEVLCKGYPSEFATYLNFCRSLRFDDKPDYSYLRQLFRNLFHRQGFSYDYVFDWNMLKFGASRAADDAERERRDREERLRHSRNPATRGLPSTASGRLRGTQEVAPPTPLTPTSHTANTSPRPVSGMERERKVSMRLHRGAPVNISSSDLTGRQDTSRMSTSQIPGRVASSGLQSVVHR
CK1ε, sequence (P49674 whole entry): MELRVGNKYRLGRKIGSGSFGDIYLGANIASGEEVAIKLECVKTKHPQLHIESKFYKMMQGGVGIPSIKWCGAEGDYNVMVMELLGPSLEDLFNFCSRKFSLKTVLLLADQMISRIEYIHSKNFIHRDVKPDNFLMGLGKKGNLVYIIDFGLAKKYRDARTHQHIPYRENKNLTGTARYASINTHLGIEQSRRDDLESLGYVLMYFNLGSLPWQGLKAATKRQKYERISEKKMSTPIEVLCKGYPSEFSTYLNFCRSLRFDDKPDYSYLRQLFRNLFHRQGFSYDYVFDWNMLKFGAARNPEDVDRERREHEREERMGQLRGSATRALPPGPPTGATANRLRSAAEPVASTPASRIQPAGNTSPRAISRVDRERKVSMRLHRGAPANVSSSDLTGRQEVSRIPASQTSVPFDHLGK

IC50 (CK1ε) [nM] | IC50 (CK1δ) [nM] | SMILES | pancreatic tumor cell growth (pancreatic tumor cell)
– | – | COc1cc(OC)c(C=C2C(O)=Nc3ccccc32)c(OC)c1 [IC261] | reduces pancreatic tumor cell growth in vitro and in vivo
2.81 | 0.694 | Nc1ccc2nc(-c3ccc(F)cc3)c(-c3ccc4nc(NC(=O)c5ccncc5)cn4n3)n2n1 [Compound 224, N-(6-amino-2-(4-fluorophenyl)-[3,6′-biimidazo[1,2-b]pyridazin]-2′-yl)isonicotinamide] | –
2.17 | 0.921 | Cc1nc(-c2ccc(F)cc2)c(-c2ccc3nc(NC(=O)c4c[nH]c5ncccc45)cn3n2)n1C [Compound 343, N-(6-(4-(4-fluorophenyl)-1,2-dimethyl-1H-imidazol-5-yl)imidazo[1,2-b]pyridazin-2-yl)-1H-pyrrolo[2,3-b] pyridine-3-carboxamide] | –
2.57 | 0.474 | CCCn1cnc(-c2ccc(F)cc2)c1-c1ccc2nc(NC(=O)c3ccnc(F)c3)cn2n1 [Compound 229, 2-Fluoro-N-(6-(4-(4-fluorophenyl)-1-propyl-1H-imidazol-5-yl)imidazo[1,2-b]pyridazin-2-yl)isonicotinamide] | –
12 | 2.16 | O=C(Nc1cn2nc(-c3c(-c4cccc(Cl)c4)ncn3CC(F)F)ccc2n1)c1ccnc(F)c1 [Compound 242, N-(6-(4-(3-chlorophenyl)-1-(2,2-difluoroethyl)-1H-imidazol-5-yl)imidazo[1,2-b]pyridazin-2-yl)-2-fluoroisonicotinamide] | –
1.09 | 0.146 | NC(=O)CN1CCC(n2cnc(-c3ccc(F)cc3)c2-c2ccc3nc(NC(=O)c4cc(F)nc(F)c4)cn3n2)CC1 [Compound 89, N-(6-(1-(1-(2-amino-2-oxoethyl)piperidin-4-yl)-4-(4-fluorophenyl)-1H-imidazol-5-yl)imidazo[1,2-b]pyridazin-2-yl)-2,6-difluoroisonicotinamide] | –
6.7 | 0.6 | CC(C)(NC(=O)N1CCn2c(nc(-c3ccc(F)cc3)c2-c2ccc3nc(NC(=O)c4ccnc(F)c4)cn3n2)C1)C(F)(F)F [Compound 484, 3-(2-(2-Fluoroisonicotinamido)imidazo[1,2-b]pyridazin-6-yl)-2-(4-fluorophenyl)-N-(1,1,1-trifluoro-2-methylpropan-2-yl)-5,6-dihydroimidazo[1,2-a]pyrazine-7(8H)-carboxamide] | –
55.1 | 10.5 | Cc1nc(-c2ccc(F)cc2)c(-c2ccc3nc(NC(=O)c4cccnn4)cn3n2)n1C [Compound 386, N-(6-(4-(4-fluorophenyl)-1,2-dimethyl-1H-imidazol-5-yl)imidazo[1,2-b]pyridazin-2-yl)pyridazine-3-carboxamide] | –
5.91 | 3.65 | O=C(Nc1cn2nc(-c3c(-c4ccc(F)cc4)nc4ccccn34)ccc2n1)c1ccnc(F)c1 [Compound 196, 2-fluoro-N-(6-(2-(4-fluorophenyl)imidazo[1,2-a]pyridin-3-yl)imidazo[1,2-b]pyridazin-2-yl)isonicotinamide] | –
1.81 | 0.208 | CCn1c(C)nc(-c2ccc(Cl)cc2)c1-c1ccc2nc(NC(=O)c3ccnc(F)c3)cn2n1 [Compound 292, N-(6-(4-(4-chlorophenyl)-1-ethyl-2-methyl-1H-imidazol-5-yl)imidazo[1,2-b]pyridazin-2-yl)-2-fluoroisonicotinamide] | –
2.45 | 0.386 | O=C(Nc1cn2nc(-c3c(-c4ccc(F)cc4)ncn3CCc3c[nH]cn3)ccc2n1)c1ccnc(F)c1 [Compound 255, 2-fluoro-N-(6-(4-(4-fluorophenyl)-1-(2-(1H-imidazol-4-yl)ethyl)-1H-imidazol-5-yl)imidazo[1,2-b]pyridazin-2-yl)isonicotinamide] | –
5 | 0.6 | CC(C)(C(=O)N1CCn2c(nc(-c3ccc(F)cc3)c2-c2ccc3nc(NC(=O)c4ccnc(F)c4)cn3n2)C1)C(F)(F)F [Compound 465, 2-Fluoro-N-(6-(2-(4-fluorophenyl)-7-(3,3,3-trifluoro-2,2-dimethylpropanoyl)-5,6,7,8-tetrahydroimidazo[1,2-a]pyrazin-3-yl)imidazo[1,2-b]pyridazin-2-yl)isonicotinamide] | –
1.27 | 0.207 | O=C(Nc1cn2nc(-c3c(-c4ccc(F)cc4)ncn3C3CCN(CC4CC4)CC3)ccc2n1)c1ccnc(F)c1 [Compound 28, N-(6-(1-(1-(cyclopropylmethyl)piperidin-4-yl)-4-(4-fluorophenyl)-1H-imidazol-5-yl)imidazo[1,2-6]pyridazin-2-yl)-2-fluoroisonicotinamide] | –
5.97 | 0.897 | Cc1nccn1CCCn1cnc(-c2ccc(F)cc2)c1-c1ccc2nc(NC(=O)c3ccnc(F)c3)cn2n1 [Compound 271, 2-fluoro-N-(6-(4-(4-fluorophenyl)-1-(3-(2-methyl-1H-imidazol-1-yl)propyl)-1H-imidazol-5-yl)imidazo[1,2-b]pyridazin-2-yl) isonicotinamide] | –
3.5 | 0.5 | N#CC1(C(=O)N2CCn3c(nc(-c4ccc(F)cc4)c3-c3ccc4nc(NC(=O)c5ccnc(F)c5)cn4n3)C2)CC1 [Compound 471, N-(6-(7-(1-Cyanocyclopropanecarbonyl)-2-(4-fluorophenyl)-5,6,7,8-tetrahydroimidazo[1,2-a]pyrazin-3-yl)imidazo[1,2-b]pyridazin-2-yl)-2-fluoroisonicotinamide] | –
0.886 | 0.494 | NC(=O)CN1CCC(n2cnc(-c3ccc(F)cc3)c2-c2ccc3nc(NC(=O)c4ccnc5ccccc45)cn3n2)CC1 [Compound 112, N-(6-(1-(1-(2-amino-2-oxoethyl)piperidin-4-yl)-4-(4-fluorophenyl)-1H-imidazol-5-yl)imidazo[1,2-b]pyridazin-2-yl)quinoline-4-carboxamide] | –
10.2 | 0.519 | Cc1nc(-c2ccc(Cl)cc2)c(-c2ccc3nc(NC(=O)c4ccnc(F)c4)cn3n2)n1C [Compound 296, N-(6-(4-(4-chlorophenyl)-1,2-dimethyl-1H-imidazol-5-yl)imidazo[1,2-b]pyridazin-2-yl)-2-fluoroisonicotinamide] | –
1.89 | 0.412 | Cc1nc(-c2ccc(F)c(F)c2)c(-c2ccc3nc(NC(=O)c4ccnc(F)c4)cn3n2)n1CCF [Compound 290, N-(6-(4-(3,4-difluorophenyl)-1-(2-fluoroethyl)-2-methyl-1H-imidazol-5-yl)imidazo[1,2-b]pyridazin-2-yl)-2-fluoroisonicotinamide] | –
1.44 | 0.323 | Cc1nc(-c2ccc(F)cc2)c(-c2ccc3nc(NC(=O)c4cccc(-c5cccnc5)c4)cn3n2)n1C [Compound 325, N-(6-(4-(4-fluorophenyl)-1,2-dimethyl-1H-imidazol-5-yl)imidazo[1,2-b]pyridazin-2-yl)-3-(pyridin-3-yl) benzamide] | –
3.34 | 0.373 | Cc1nc(-c2ccc(F)cc2)c(-c2ccc3nc(NC(=O)c4cccc5cnccc45)cn3n2)n1C [Compound 330, N-(6-(4-(4-fluorophenyl)-1,2-dimethyl-1H-imidazol-5-yl)imidazo[1,2-b]pyridazin-2-yl)-5-isoquinoline-carboxamide] | –
0.966 | 0.824 | Cc1nc(-c2ccc(F)cc2)c(-c2ccc3nc(NC(=O)c4c[nH]c5ccncc45)cn3n2)n1C [Compound 334, N-(6-(4-(4-fluorophenyl)-1,2-dimethyl-1H-imidazol-5-yl)imidazo[1,2-b]pyridazin-2-yl)-1H-pyrrolo[3,2-c] pyridine-3-carboxamide] | –
17.1 | 1.67 | Cc1cc(C)n(CCC(=O)Nc2cn3nc(-c4c(-c5ccc(F)cc5)nc5ccccn45)ccc3n2)n1 [Compound 215, 3-(3,5-dimethyl-1H-pyrazol-1-yl)-N-(6-(2-(4-fluorophenyl)imidazo[1,2-a]pyridin-3-yl)imidazo[1,2-b]pyridazin-2-yl)propanamide] | –
